# According to the supplement of paper PMC10307832:
# Legend:
# Assay in all cases: relative viability (nuclei count vs DMSO), 5 days (fraction); higher = more cells survive
# Linsitinib + Trametinib = compound: C[C@]1(O)C[C@@H](c2nc(-c3ccc4ccc(-c5ccccc5)nc4c3)c3c(N)nccn32)C1 [Linsitinib] + CC(=O)Nc1cccc(-n2c(=O)n(C3CC3)c(=O)c3c(Nc4ccc(I)cc4F)n(C)c(=O)c(C)c32)c1 [Trametinib] (partner 0.02 µM)
# Method in brief: (§1)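 Values are medians from duplicate plates. Each reflects relative viability, defined as the nuclei count of treated wells over that of vehicle wells. Lung cancer cell lines in 1536-well plates were pin-tool dosed one day after seeding with one drug alone or with a fixed anchor-drug dose plus five library-drug doses (not always all listed) in √10 steps, then fixed, stained and imaged at 4× after 5 days.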
# Linsitinib + Dasatinib = compound: C[C@]1(O)C[C@@H](c2nc(-c3ccc4ccc(-c5ccccc5)nc4c3)c3c(N)nccn32)C1 [Linsitinib] + Cc1nc(Nc2ncc(C(=O)Nc3c(C)cccc3Cl)s2)cc(N2CCN(CCO)CC2)n1 [Dasatinib] (partner 0.075 µM)
# Method in brief: as §1
# Linsitinib + Vorinostat = compound: C[C@]1(O)C[C@@H](c2nc(-c3ccc4ccc(-c5ccccc5)nc4c3)c3c(N)nccn32)C1 [Linsitinib] + O=C(CCCCCCC(=O)Nc1ccccc1)NO [Vorinostat] (partner 1 µM)
# Method in brief: as §1
# Linsitinib + Decitabine = compound: C[C@]1(O)C[C@@H](c2nc(-c3ccc4ccc(-c5ccccc5)nc4c3)c3c(N)nccn32)C1 [Linsitinib] + Nc1ncn([C@H]2C[C@H](O)[C@@H](CO)O2)c(=O)n1 [Decitabine] (partner 2 µM)
# Method in brief: as §1
Cell Line,relative viability (Linsitinib + Trametinib; first compound 0.01 µM),relative viability (Linsitinib + Trametinib; first compound 0.03162 µM),relative viability (Linsitinib + Trametinib; first compound 0.1 µM),relative viability (Linsitinib + Trametinib; first compound 1 µM),relative viability (Linsitinib + Dasatinib; first compound 0.01 µM),relative viability (Linsitinib + Dasatinib; first compound 0.03162 µM),relative viability (Linsitinib + Dasatinib; first compound 0.1 µM),relative viability (Linsitinib + Dasatinib; first compound 1 µM),relative viability (Linsitinib + Vorinostat; first compound 0.01 µM),relative viability (Linsitinib + Vorinostat; first compound 0.03162 µM),relative viability (Linsitinib + Vorinostat; first compound 0.1 µM),relative viability (Linsitinib + Vorinostat; first compound 1 µM),relative viability (Linsitinib + Decitabine; first compound 0.01 µM),relative viability (Linsitinib + Decitabine; first compound 0.03162 µM),relative viability (Linsitinib + Decitabine; first compound 0.1 µM),relative viability (Linsitinib + Decitabine; first compound 1 µM),relative viability (Linsitinib + Vorinostat; first compound 0.3162 µM),relative viability (Linsitinib + Trametinib; first compound 0.3162 µM),relative viability (Linsitinib + Dasatinib; first compound 0.3162 µM),relative viability (Linsitinib + Decitabine; first compound 0.3162 µM)
HOP-62,0.405,0.39,0.427,0.368,0.65,0.692,0.643,0.565,0.699,0.57,0.682,0.36,0.194,0.241,0.194,0.201,–,–,–,–
IA-LM,–,–,–,–,–,–,–,–,0.975,0.829,1.06,0.499,–,–,–,–,0.315,–,–,–
LC-2-ad,0.906,0.718,0.942,0.827,0.481,0.31,0.385,0.236,0.719,0.693,0.692,0.443,0.776,0.719,0.864,0.742,0.487,0.864,0.271,0.726
LCLC-97TM1,0.215,0.174,0.156,0.196,0.842,0.64,0.842,0.614,0.756,0.711,0.674,0.191,0.251,0.261,0.24,0.245,0.103,0.171,0.602,0.204
LCLC-103H,0.658,0.56,0.688,0.647,0.444,0.517,0.474,0.368,0.775,0.68,0.836,0.605,0.757,0.713,0.658,0.739,0.429,0.632,0.428,0.628
LK-2,0.892,0.626,0.599,0.643,0.281,0.328,0.212,0.197,0.237,0.335,0.178,0.176,0.221,0.407,0.232,0.185,0.275,0.39,0.228,0.187
LOU-NH91,0.766,0.727,0.779,0.715,0.561,0.612,0.545,0.456,0.983,0.817,0.914,0.76,0.813,0.806,0.803,0.782,0.735,0.56,0.645,0.715
LU99A,0.524,0.602,0.528,0.493,0.553,0.52,0.539,0.289,0.492,0.466,0.524,0.291,0.924,0.881,0.81,0.917,–,–,0.334,–
LXF-289,0.641,0.535,0.674,0.665,0.244,0.203,0.182,0.191,0.735,0.69,0.755,0.729,0.366,0.481,0.382,0.39,0.473,0.519,–,0.333
NCI-H23,0.49,0.371,0.337,0.256,0.837,0.807,0.571,0.366,0.633,0.327,0.765,0.303,0.305,0.314,0.322,0.298,0.174,0.244,0.415,0.264
NCI-H322M,0.513,0.548,0.571,0.473,0.244,0.256,0.229,0.26,0.912,0.927,0.953,0.623,0.68,0.818,0.719,0.674,1,0.531,0.223,0.757
NCI-H358,0.15,0.148,0.13,0.0976,0.162,0.167,0.159,0.142,0.74,0.564,0.812,0.368,0.242,0.354,0.256,0.222,0.55,0.118,0.148,0.208
NCI-H441,0.537,0.44,0.339,0.231,0.484,0.55,0.614,0.303,0.904,0.829,0.84,0.547,0.246,0.26,0.223,0.257,0.556,0.215,0.349,0.212
NCI-H460,0.136,0.137,0.196,0.0792,0.578,0.393,0.441,0.146,0.694,0.644,0.692,0.601,0.497,0.483,0.511,0.424,–,–,0.34,–
NCI-H520,0.618,0.64,0.641,0.712,0.191,0.192,0.2,0.195,0.802,0.689,0.722,0.695,0.456,0.59,0.501,0.555,–,–,–,–
NCI-H1563,–,–,–,–,0.47,0.485,0.384,0.378,–,–,–,–,–,–,–,–,–,–,0.812,–
NCI-H1623,–,–,–,–,0.561,0.527,0.45,0.415,–,–,–,–,–,–,–,–,–,–,–,–
NCI-H1648,0.517,0.482,0.53,0.385,–,–,–,–,0.605,0.412,0.551,0.57,0.468,0.445,0.428,0.46,0.211,0.388,–,0.377
NCI-H1792,0.506,0.432,0.335,0.335,–,0.927,0.771,0.215,–,–,–,–,0.496,0.484,0.512,0.363,–,0.32,0.529,0.472
NCI-H2228,0.569,0.595,0.378,0.363,0.48,0.483,0.52,0.387,0.593,0.409,0.664,0.476,–,–,–,–,0.465,0.347,0.421,–
